From PubChem BioAssay (NCI)
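Method: 48-hour compound exposure of cells in 96-well plates, five concentrations, linear interpolation of endpoints. GI50: concentration for 50% inhibition of growth. TGI denotes the concentration required for complete inhibition of growth.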

How the values were obtained:
Assay in all cases: growth of human tumour cells (NCI), 48 h
[1] = tested on: NCI/ADR-RES ovarian
[2] = tested on: SF-539 CNS
[3] = tested on: PC-3 prostate
[4] = tested on: HOP-62 NSCLC
[5] = tested on: SK-OV-3 ovarian
[6] = tested on: MOLT-4 leukemia
[7] = tested on: RPMI-8226 leukemia
[8] = tested on: UACC-257 melanoma
[9] = tested on: MCF7 breast
[10] = tested on: IGROV1 ovarian
[11] = tested on: TK-10 renal
[12] = tested on: 786-0 renal
[13] = tested on: SK-MEL-2 melanoma
[14] = tested on: CAKI-1 renal
[15] = tested on: MDA-MB-231 breast
[16] = tested on: SNB-75 CNS
[17] = tested on: OVCAR-8 ovarian
[18] = tested on: UACC-62 melanoma
[19] = tested on: SK-MEL-28 melanoma
[20] = tested on: LOX IMVI melanoma
[21] = tested on: A549 NSCLC
[22] = tested on: U251 CNS
[23] = tested on: RXF 393 renal
[24] = tested on: SW-620 colon
[25] = tested on: KM12 colon
[26] = tested on: BT-549 breast
[27] = tested on: HS 578T breast
[28] = tested on: MDA-MB-435
[29] = tested on: SNB-19 CNS
[30] = tested on: DU-145 prostate
[31] = tested on: OVCAR-4 ovarian
[32] = tested on: HT29 colon
[33] = tested on: SN12C renal
[34] = tested on: HCT-116 colon
[35] = tested on: OVCAR-3 ovarian
[36] = tested on: T-47D breast
[37] = tested on: ACHN renal
[38] = tested on: EKVX NSCLC
[39] = tested on: SF-295 CNS
[40] = tested on: HL-60(TB) leukemia
[41] = tested on: HCC-2998 colon
[42] = tested on: M14 melanoma
[43] = tested on: SR leukemia
[44] = tested on: SF-268 CNS
[45] = tested on: SK-MEL-5 melanoma
[46] = tested on: NCI-H460 lung
[47] = tested on: HOP-92 NSCLC
[48] = tested on: K-562 leukemia
[49] = tested on: NCI-H226 lung
[50] = tested on: MALME-3M melanoma
[51] = tested on: COLO 205 colon
[52] = tested on: NCI-H23 lung
[53] = tested on: NCI-H522 lung
[54] = tested on: UO-31 renal
[55] = tested on: CCRF-CEM leukemia
[56] = tested on: HCT-15 colon
[57] = tested on: A498 renal
[58] = tested on: OVCAR-5 ovarian

For `COc1cc(C)c(C(=O)O[C@H]2[C@H](O[C@H]3[C@@H](O)COC(O[C@H]4C[C@H]5[C@@H]6CC=C7C[C@@H](O)CC[C@]7(C)[C@H]6CC[C@]5(C)[C@H]4[C@H](C)C(=O)CCC(C)C)[C@@H]3OC(C)=O)OC[C@@H](O)[C@@H]2O)c(C)c1` (some centres not stated), the GI50 [1] was 4790 nM, the TGI [1] was 31200 nM and the GI50 [2] was < 10 nM. The TGI [2] was 13.7 nM, the GI50 [3] was < 10 nM and the TGI [3] was 2400 nM. The GI50 [4] was 12.5 nM, the TGI [4] was 3650 nM and the GI50 [5] was 141 nM. For the same compound, the TGI [5] was 2730 nM, the GI50 [6] was < 10 nM and the TGI [6] was 704 nM. For the same compound, the GI50 [7] was < 10 nM, the TGI [7] was < 10 nM and the GI50 [8] was 21 nM. The TGI [8] was 73.8 nM, the GI50 [9] was < 10 nM and the TGI [9] was 7620 nM. It also gave a GI50 [10] of 247 nM, a TGI [10] of 19900 nM and a GI50 [11] of 704 nM. For the same compound, the TGI [11] was 16600 nM, the GI50 [12] was < 10 nM and the TGI [12] was 2550 nM. For the same compound, the GI50 [13] was < 10 nM, the TGI [13] was 302 nM and the GI50 [14] was < 10 nM. It also gave a TGI [14] of 1180 nM, a GI50 [15] of 517 nM and a TGI [15] of 16100 nM. For the same compound, the GI50 [16] was < 10 nM, the TGI [16] was 7710 nM and the GI50 [17] was 10300 nM. The TGI [17] was > 100000 nM, the GI50 [18] was < 10 nM and the TGI [18] was < 10 nM. For the same compound, the GI50 [19] was < 10 nM, the TGI [19] was 19.2 nM and the GI50 [20] was < 10 nM. For the same compound, the TGI [20] was 18.3 nM, the GI50 [21] was < 10 nM and the TGI [21] was 30500 nM. The GI50 [22] was < 10 nM, the TGI [22] was 12800 nM and the GI50 [23] was < 10 nM. For the same compound, the TGI [23] was < 10 nM, the GI50 [24] was < 10 nM and the TGI [24] was 183 nM. The GI50 [25] was 153 nM, the TGI [25] was 18400 nM and the GI50 [26] was < 10 nM. The TGI [26] was 5500 nM, the GI50 [27] was < 10 nM and the TGI [27] was 161 nM. For the same compound, the GI50 [28] was < 10 nM, the TGI [28] was 130 nM and the GI50 [29] was < 10 nM. For the same compound, the TGI [29] was 4930 nM, the GI50 [30] was 1520 nM and the TGI [30] was 21900 nM. The GI50 [31] was 571 nM, the TGI [31] was 69900 nM and the GI50 [32] was 157 nM. For the same compound, the TGI [32] was 15700 nM, the GI50 [33] was 10000 nM and the TGI [33] was 25600 nM. For the same compound, the GI50 [34] was < 10 nM, the TGI [34] was 2290 nM and the GI50 [35] was 2770 nM. For the same compound, the TGI [35] was 22000 nM, the GI50 [36] was 24.9 nM and the TGI [36] was 16700 nM. The GI50 [37] was 76.7 nM, the TGI [37] was 18600 nM and the GI50 [38] was 1060 nM. For the same compound, the TGI [38] was 15100 nM, the GI50 [39] was < 10 nM and the TGI [39] was < 10 nM. For the same compound, the GI50 [40] was 16 nM, the TGI [40] was 20000 nM and the GI50 [41] was 2410 nM. The TGI [41] was 20300 nM, the GI50 [42] was < 10 nM and the TGI [42] was < 10 nM. The GI50 [43] was < 10 nM, the TGI [43] was 21100 nM and the GI50 [44] was < 10 nM. The TGI [44] was 2920 nM, the GI50 [45] was < 10 nM and the TGI [45] was 18.1 nM. For the same compound, the GI50 [46] was < 10 nM, the TGI [46] was 1740 nM and the GI50 [47] was < 10 nM. For the same compound, the TGI [47] was 2580 nM, the GI50 [48] was < 10 nM and the TGI [48] was 7470 nM. For the same compound, the GI50 [49] was 135 nM, the TGI [49] was 12400 nM and the GI50 [50] was 25.7 nM. The TGI [50] was 5890 nM, the GI50 [51] was 30.7 nM and the TGI [51] was 382 nM. The GI50 [52] was 384 nM, the TGI [52] was 14200 nM and the GI50 [53] was < 10 nM. For the same compound, the TGI [53] was 334 nM, the GI50 [54] was < 10 nM and the TGI [54] was 58.4 nM. The GI50 [55] was < 10 nM, the TGI [55] was 102 nM and the GI50 [56] was 54.3 nM. For the same compound, the TGI [56] was 1940 nM, the GI50 [57] was < 10 nM and the TGI [57] was < 10 nM. It also gave a GI50 [58] of 580 nM and a TGI [58] of 18500 nM.
For `CC(C)C[C@H](NC(=O)[C@H](CCc1ccccc1)NC(=O)CN1CCOCC1)C(=O)N[C@@H](Cc1ccccc1)C(=O)N[C@@H](CC(C)C)C(=O)[C@@]1(C)CO1`, the GI50 [1] was 636 nM, the TGI [1] was > 100000 nM and the GI50 [2] was < 13.3 nM. It also gave a TGI [2] of 36.7 nM, a GI50 [3] of 24.7 nM and a TGI [3] of 305 nM. The GI50 [4] was < 13.9 nM, the TGI [4] was < 22.9 nM and the GI50 [5] was 25.3 nM. The TGI [5] was 282 nM, the GI50 [6] was < 10 nM and the TGI [6] was > 100000 nM. For the same compound, the GI50 [7] was < 10 nM, the GI50 [8] was 54.7 nM and the TGI [8] was 287 nM. The GI50 [9] was < 10 nM, the TGI [9] was 5410 nM and the GI50 [10] was 32.4 nM. For the same compound, the GI50 [11] was 14.4 nM, the TGI [11] was 93.4 nM and the GI50 [12] was 31.1 nM. For the same compound, the TGI [12] was 332 nM, the GI50 [13] was 14.4 nM and the TGI [13] was 54.3 nM. For the same compound, the GI50 [14] was 109 nM, the TGI [14] was 781 nM and the GI50 [15] was < 12.8 nM. The TGI [15] was 63.5 nM, the GI50 [16] was 18 nM and the TGI [16] was 50.9 nM. For the same compound, the GI50 [17] was 20.4 nM, the TGI [17] was 95.2 nM and the GI50 [18] was 33 nM. The TGI [18] was 114 nM, the GI50 [19] was 47.5 nM and the TGI [19] was 1570 nM. For the same compound, the GI50 [20] was < 10 nM, the TGI [20] was 13.5 nM and the GI50 [21] was 20.3 nM. The TGI [21] was 204 nM, the GI50 [22] was < 12.7 nM and the TGI [22] was 63.2 nM. The GI50 [23] was < 14 nM, the TGI [23] was 24.6 nM and the GI50 [24] was < 10 nM. For the same compound, the GI50 [25] was < 10 nM, the TGI [25] was 19.9 nM and the GI50 [26] was < 10 nM. The TGI [26] was 24.2 nM, the GI50 [27] was 22.4 nM and the TGI [27] was 3340 nM. For the same compound, the GI50 [28] was < 10 nM, the TGI [28] was 17.3 nM and the GI50 [29] was < 16.4 nM. For the same compound, the TGI [29] was > 100000 nM, the GI50 [30] was 18.3 nM and the TGI [30] was 1370 nM. For the same compound, the GI50 [31] was < 11.7 nM, the GI50 [32] was < 10 nM and the TGI [32] was 47.1 nM. For the same compound, the GI50 [33] was < 13.2 nM, the TGI [33] was 34.9 nM and the GI50 [34] was < 10 nM. For the same compound, the TGI [34] was < 12.5 nM, the GI50 [35] was < 10 nM and the TGI [35] was 17.2 nM. For the same compound, the GI50 [36] was < 12.8 nM, the TGI [36] was 28 nM and the GI50 [37] was 36.6 nM. The TGI [37] was 2660 nM, the GI50 [38] was 56.6 nM and the GI50 [39] was < 10 nM. For the same compound, the TGI [39] was 56.1 nM, the GI50 [40] was 26.8 nM and the TGI [40] was 93 nM. For the same compound, the GI50 [41] was < 11.8 nM, the TGI [41] was 22.7 nM and the GI50 [42] was < 13.1 nM. For the same compound, the TGI [42] was 44.6 nM, the GI50 [43] was 14.9 nM and the TGI [43] was > 100000 nM. The GI50 [44] was < 10 nM, the TGI [44] was 252 nM and the GI50 [45] was < 13.6 nM. It also gave a TGI [45] of 43.4 nM, a GI50 [46] of 23.5 nM and a TGI [46] of 153 nM. The GI50 [47] was 23.6 nM, the TGI [47] was 81.2 nM and the GI50 [48] was 25.2 nM. For the same compound, the TGI [48] was > 100000 nM, the GI50 [49] was < 12.2 nM and the TGI [49] was < 17.5 nM. The GI50 [50] was 52.7 nM, the TGI [50] was 586 nM and the GI50 [51] was < 16.5 nM. For the same compound, the TGI [51] was 172 nM, the GI50 [52] was < 15 nM and the TGI [52] was 115 nM. The GI50 [53] was < 10 nM, the TGI [53] was 23.9 nM and the GI50 [54] was 116 nM. For the same compound, the TGI [54] was 575 nM, the GI50 [55] was < 10 nM and the TGI [55] was > 100000 nM. For the same compound, the GI50 [56] was 83 nM, the TGI [56] was 1600 nM and the GI50 [57] was 22.7 nM. The TGI [57] was 98.7 nM, the GI50 [58] was 25.5 nM and the TGI [58] was 112 nM.
